This passage reports IC50 results from US20240262795A1, “PYRAZINE COMPOUNDS AS INHIBITORS OF FLT3” (Biomea Fusion, Inc., priority 2021, published 2024).

Molecules are shown by their SMILES.

Assay type in all cases: cell-based, human
One assay deals with MOLM-13. The assay can be described thus: Proliferation inhibition, CellTiter-Glo, MOLM-13. The conditions noted are these: Homo sapiens, 96 h; MOLM-13 cells, IC50 (4 days), CellTiter-Glo; read-out: MOLM-13 IC50. From the text:
(§1) The proliferation inhibitory effect was investigated in human AML cell lines MOLM-13 (AddexBio: C0003003) and MV-4-11 (ATCC: CRL-9591), and CML cell line […] (ATCC: CRL-3343). Molm-13 is heterozygous for FLT3-ITD mutation, while MV4-11 is homozygous for FLT3-ITD (Quentmeier H, et al., Leukemia. 17(1):120-4). […] Cells were maintained in RPMI-1640 medium (ThermoFisher catalog no. 61870036) supplemented with 10% of Heat Inactivated FBS (ThermoFisher catalog no. A31605) and 1% Pen-Strep (ThermoFisher catalog no. 10378016) and cultured at 37° C. in a humidified incubator with 5% CO2. Cell lines were grown by […], and the cells were maintained in a range 70%-80% confluency.
(§2) ATP is present in all metabolically active cells and is considered as a marker for cell viability and proliferation. Metabolic cell activity was determined using the CellTiter-Glo kit (Promega catalog no. G7572), an ATP monitoring system based on the production of luminescence by the reaction of ATP with added UltraGlo® recombinant luciferase (Kawano et al., 2016, PLOS One, 8; 11(7):e0158888), according to the supplier's experimental recommendations. The assay was based on a 96 well plate format.
(§3) Test compounds were dissolved at 10 mM in DMSO (Sigma catalog no. D8418; purity≥99.9%) and stored at −20° C. Eight concentrations of test compound were assessed in duplicate in an individual test occasion in parallel in the selected cell lines. Gilteratinib and FF-10101 were used as reference compounds and tested in duplicate at eight concentrations. 100% of proliferation is represented by the untreated cells (0.2% DMSO).
(§4) On the day of the experiment, cells were quantified with the cell viability analyzer NucleoCounter (Chemometec NC-200) and diluted with fresh medium to obtain the cell density of about 10,000 cells per 200 μL medium. 200 μL of cell suspension were added into wells in the 96 well plate.
(§5) After 2 hours from seeding cells, compounds at desired concentrations were added using a D300e compound dispenser (Life Sciences Tecan D300) with shaking between each compound dispensed. Assay plates were incubated at 37° C. in a humidified incubator with 5% CO2.
(§6) On day 4 (˜96 hrs after compound addition) assay plates were equilibrated at room temperature for approximately 15 min, and then 40 μL/well of the Promega CellTiterGlo® reagent was added. Contents were mixed for 5 min on an orbital shaker to promote cell lysis, and then incubated at room temperature for an additional 10 min in the dark to stabilize the luminescent signal. Luminescence was read by using a GloMlax GM300 plate reader (Promega) using the luminescence for 96 well plate standard protocol.
(§7) Results were analyzed by GraphPad (Prism) and IC50 values were calculated by non-linear regression using four parameter-logistic equation.

For another assay, the system named is MV-4-11. The assay can be described thus: Proliferation inhibition, CellTiter-Glo, MV-4-11. The conditions noted are these: Homo sapiens, MV4-11, 96 h; MV-4:11 cells, IC50 (4 days), CellTiter-Glo; read-out: MV-4:11 IC50.
Excerpt: as §1, §2, §3, §4, §5, §6, §7
(In general: In ATP-based viability assays light output follows the ATP content of the culture.)

Another assay relates to K-562. The assay can be described thus: Proliferation inhibition, CellTiter-Glo, K-562. The following applies: Homo sapiens, K562, 96 h; K-562 cells, IC50 (4 days), CellTiter-Glo; read-out: K-562 IC50.
Excerpt: as §1, §2, §3, §4, §5, §6, §7

`CCc1cc(C(N)=O)c(Nc2cccc(CCNC(=O)[C@H](C)N(C)C(=O)/C=C/CN(C)C)c2)nc1N(C)C` [Compound 322, (S,E)-6-(dimethylamino)-2-((3-(2-(2-(4-(dimethylamino)-N-methylbut-2-enamido)propanamido)ethyl)phenyl)amino)-5-ethylnicotinamide]: the IC50 was 100 to 500 nM in the assay with MOLM-13, 10 to 100 nM in the assay with MV-4-11 and more than 500 nM with K-562.

In the case of `CCc1nc(C(N)=O)c(Nc2cccc([C@@H](C)CNC(=O)[C@H](C)N(C)C(=O)/C=C/CN(C)C)c2)nc1C` [Compound 326, 3-((3-((R)-1-((S)-2-((E)-4-(dimethylamino)-N-methylbut-2-enamido)propanamido)propan-2-yl)phenyl)amino)-6-ethyl-5-methylpyrazine-2-carboxamide], the concentration for half-maximal inhibition (IC50) with MOLM-13, in the assay with MV-4-11 and with K-562 was more than 500 nM in each case.

Regarding `Cc1nc(C(N)=O)c(Nc2cccc(CCNC(=O)[C@H](C)N(C)C(=O)/C=C/CN(C)C)c2)nc1N(C)C` [Compound 233, (S,E)-5-(dimethylamino)-3-((3-(2-(2-(4-(dimethylamino)-N-methylbut-2-enamido)propanamido)ethyl)phenyl)amino)-6-methylpyrazine-2-carboxamide], the concentration for half-maximal inhibition (IC50) with MOLM-13 is 1 to 10 nM; with MV-4-11, less than 1 nM; in the assay with K-562, more than 500 nM.

For the compound `CC#CC(=O)N(C)[C@@H](C)C(=O)NCCc1cccc(Nc2nc(N(C)C)c(C)nc2C(N)=O)c1` [Compound 217, 3-[3-[2-[[(2S)-2-[but-2-ynoyl(methyl)amino]propanoyl]amino]ethyl]anilino]-5-(dimethylamino)-6-methyl-pyrazine-2-carboxamide], the results for the 50% inhibitory concentration (IC50) with MOLM-13, in the assay with MV-4-11 and with K-562 were 10 to 100 nM, 10 to 100 nM and more than 500 nM, respectively.

`Cc1nc(C(N)=O)c(Nc2cccc(CCNC(=O)[C@H](C)N(C)C(=O)/C=C/CN(C)C)c2)nc1C1CC1` [Compound 228, (S,E)-5-cyclopropyl-3-((3-(2-(2-(4-(dimethylamino)-N-methylbut-2-enamido)propanamido)ethyl)phenyl)amino)-6-methylpyrazine-2-carboxamide]: the IC50 with MOLM-13 was 1 to 10 nM; in the assay with MV-4-11 it was 1 to 10 nM; in the assay with K-562, more than 500 nM.

Turning to `CCc1nc(C(N)=O)c(Nc2cccc(CCNC(=O)[C@@H](C)N(C)C(=O)/C=C/CN(C)C)c2)nc1C` [Compound 234, 3-[3-[2-[[(2R)-2-[[(E)-4-(dimethylamino)but-2-enoyl]-methyl-amino]propanoyl]amino]ethyl]anilino]-6-ethyl-5-methyl-pyrazine-2-carboxamide], the IC50 with MOLM-13 was more than 500 nM; with MV-4-11 it was 10 to 100 nM; with K-562 it was more than 500 nM.

For `CCc1nc(C(N)=O)c(Nc2cccc(CCNC(=O)[C@H](C)N(C)C(=O)/C=C/CN(C)C)c2)nc1C` [Compound 142A, (S,E)-3-((3-(2-(2-(4-(dimethylamino)-N-methylbut-2-enamido)propanamido)ethyl)phenyl)amino)-6-ethyl-5-methylpyrazine-2-carboxamide], the figures for the 50% inhibitory concentration (IC50) in the assay with MOLM-13, in the assay with MV-4-11 and in the assay with K-562 were 1 to 10 nM, 1 to 10 nM and more than 500 nM, respectively.

In the case of `CCc1nc(C(N)=O)c(Nc2cccc(CCNC(=O)[C@H](C)N(C)C(=O)/C=C/CNC)c2)nc1C` [Compound 227, (S,E)-6-ethyl-5-methyl-3-((3-(2-(2-(N-methyl-4-(methylamino)but-2-enamido)propanamido)ethyl)phenyl)amino)pyrazine-2-carboxamide], the half-inhibitory concentration (IC50) in the assay with MOLM-13 was 1 to 10 nM; with MV-4-11 it was 1 to 10 nM; with K-562 it was more than 500 nM.

For the compound `CCc1nc(C(N)=O)c(Nc2cc(F)cc(CCNC(=O)[C@H](C)N(C)C(=O)/C=C/CN(C)C)c2)nc1C` [Compound 163, 3-[3-[2-[[(2S)-2-[[(E)-4-(dimethylamino)but-2-enoyl]-methyl-amino]propanoyl]amino]ethyl]-5-fluoro-anilino]-6-ethyl-5-methyl-pyrazine-2-carboxamide], the values for the IC50 in the assay on MOLM-13, in the assay on MV-4-11 and with K-562 were 1 to 10 nM, 1 to 10 nM and more than 500 nM, respectively.

With `[2H]C([2H])([2H])N(C/C=C/C(=O)N(C)[C@@H](C)C(=O)NCCc1cccc(Nc2nc(N(C)C(C)C)c(CC)nc2C(N)=O)c1)C([2H])([2H])[2H]` [Compound 249, (S,E)-3-((3-(2-(2-(4-(bis(methyl-d3)amino)-N-methylbut-2-enamido)propanamido)ethyl)phenyl)amino)-6-ethyl-5-(isopropyl(methyl)amino)pyrazine-2-carboxamide], the IC50 is less than 1 nM in the assay on MOLM-13, less than 1 nM with MV-4-11 and more than 500 nM with K-562.

On to `CCc1nc(C(N)=O)c(Nc2cccc(C[C@@H](C)NC(=O)[C@H](C)N(C)C(=O)/C=C/CN(C)C)c2)nc1C` [Compound 314, 3-[3-[(2R)-2-[[(2S)-2-[[(E)-4-(dimethylamino)but-2-enoyl]-methyl-amino]propanoyl]amino]propyl]anilino]-6-ethyl-5-methyl-pyrazine-2-carboxamide], for which the IC50 in the assay with MOLM-13 was 100 to 500 nM; in the assay on MV-4-11 it was 10 to 100 nM; in the assay with K-562, more than 500 nM.

Regarding `CCc1cc(C(N)=O)c(Nc2cccc(CCNC(=O)[C@H](C)N(C)C(=O)/C=C/CN(C)C)c2)nc1C1CC1` [Compound 316, 6-cyclopropyl-2-[3-[2-[[(2S)-2-[[(E)-4-(dimethylamino)but-2-enoyl]-methyl-amino]propanoyl]amino]ethyl]anilino]-5-ethyl-pyridine-3-carboxamide], the half-inhibitory concentration (IC50) with MOLM-13 was 100 to 500 nM; in the assay with MV-4-11, 10 to 100 nM; in the assay on K-562, more than 500 nM.

With `CCc1nc(C(N)=O)c(Nc2cccc(C[C@H](C)NC(=O)CN(C)C(=O)/C=C/CN(C)C)c2)nc1C` [Compound 312, 3-[3-[(2S)-2-[[2-[[(E)-4-(dimethylamino)but-2-enoyl]-methyl-amino]acetyl]amino]propyl]anilino]-6-ethyl-5-methyl-pyrazine-2-carboxamide], the IC50 with MOLM-13 is 100 to 500 nM; in the assay with MV-4-11, 10 to 100 nM; with K-562, more than 500 nM.

In the case of `Cc1nc(Nc2cc(F)cc(CCNC(=O)CN(C)C(=O)/C=C/CN(C)C)c2)c(C(N)=O)nc1C` [Compound 251, 3-[3-[2-[[2-[[(E)-4-(dimethylamino)but-2-enoyl]-methyl-amino]acetyl]amino]ethyl]-5-fluoro-anilino]-5,6-dimethyl-pyrazine-2-carboxamide], the IC50 in the assay on MOLM-13 is 10 to 100 nM; in the assay on MV-4-11, 1 to 10 nM; with K-562, more than 500 nM.

With `CCc1nc(C(N)=O)c(Nc2cccc(CCNC(=O)[C@H](C)N(C)C(=O)/C(F)=C/CN(C)C)c2)nc1N(C)C` [Compound 162, (S,Z)-5-(dimethylamino)-3-((3-(2-(2-(4-(dimethylamino)-2-fluoro-N-methylbut-2-enamido)propanamido)ethyl)phenyl)amino)-6-ethylpyrazine-2-carboxamide], the IC50 with MOLM-13 was 100 to 500 nM; with MV-4-11, 10 to 100 nM; with K-562 it was more than 500 nM.

`[2H]C([2H])([2H])N(C/C=C/C(=O)N(C)[C@@H](C)C(=O)NCCc1cccc(Nc2nc(NC(C)C)c(CC)nc2C(N)=O)c1)C([2H])([2H])[2H]` [Compound 505, (S,E)-3-((3-(2-(2-(4-(bis(methyl-d3)amino)-N-methylbut-2-enamido)propanamido)ethyl)phenyl)amino)-6-ethyl-5-(isopropylamino)pyrazine-2-carboxamide]: in the assay on K-562, the IC50 was more than 500 nM.

As for `Cc1cc(C(N)=O)c(Nc2cncc(CCNC(=O)[C@H](C)N(C)C(=O)/C=C/CN(C)C)c2)nc1C1CC1` [Compound 323, (S,E)-6-cyclopropyl-2-((5-(2-(2-(4-(dimethylamino)-N-methylbut-2 enamido)propanamido)ethyl)pyridin-3-yl)amino)-5-methylnicotinamide], the half-inhibitory concentration (IC50) is 100 to 500 nM in the assay with MOLM-13 and 10 to 100 nM in the assay with MV-4-11.

By IC50 is commonly meant the concentration needed to halve the response being measured.
